Columns and labels:
Format in all cases: in vivo
[1] = test system: Diabrotica Balteata (Corn Root Worm); test: Diabrotica balteata (Corn Root Worm) maize sprout spray test; details: 96 h, application rate of 200 ppm, maize sprouts sprayed, L2 larvae, 4 days after infestation, read-out: effect in at least one of the two categories (mortality or growth inhibition)
Protocol: Maize sprouts placed onto an agar layer in 24-well microtiter plates were treated with aqueous test solutions prepared from 10,000 ppm DMSO stock solutions by spraying. After drying, the plates were infested with L2 larvae (6 to 10 per well). The samples were assessed for mortality and growth inhibition in comparison to untreated samples 4 days after infestation.

[2] = test system: Bemisia tabaci (Cotton White Fly); test: Bemisia tabaci (Cotton White Fly): Feeding/Contact Activity; details: foliar, 144 h, application rate of 200 ppm, cotton leaf discs sprayed, adult white flies, 6 days after incubation
Protocol: Cotton leaf discs were placed on agar in 24-well microtiter plates and sprayed with aqueous test solutions prepared from 10,000 ppm DMSO stock solutions. After drying the leaf discs were infested with adult white flies. The samples were checked for mortality 6 days after incubation.

[3] = test system: Frankliniella occidentalis (Western Flower Thrips); test: Frankliniella occidentalis (Western Flower Thrips): Feeding/Contact Activity; details: foliar, 168 h, application rate of 200 ppm, sunflower leaf discs sprayed, population of mixed ages, 7 days after infestation
Protocol: Sunflower leaf discs were placed on agar in 24-well microtiter plates and sprayed with aqueous test solutions prepared from 10,000 DMSO stock solutions. After drying the leaf discs were infested with a Frankliniella population of mixed ages. The samples were assessed for mortality 7 days after infestation.

[4] = test system: Spodoptera littoralis (Egyptian Cotton Leaf Worm); test: Spodoptera littoralis (Egyptian Cotton Leaf Worm) systemic lettuce test; details: 144 h, test rate of 12.5 ppm, compound in agar taken up by lettuce roots, eggs, 6 days after infestation, read-out: effect in at least one of the three categories (mortality, anti-feeding, or growth inhibition)
Source text: Test compounds were applied by pipette from 10,000 ppm DMSO stock solutions into 24-well plates and mixed with agar. Lettuce seeds were placed onto the agar and the multi well plate was closed by another plate which contained also agar. After 7 days the compound was absorbed by the roots and the lettuce grew into the lid plate. The lettuce leaves were then cut off into the lid plate. Spodoptera eggs were pipetted through a plastic stencil onto a humid gel blotting paper and the lid plate was closed with it. The samples were assessed for mortality, anti-feedant effect and growth inhibition in comparison to untreated samples 6 days after infestation.

[5] = test system: Euschistus heros (Neotropical Brown Stink Bug); test: Euschistus heros (Neotropical Brown Stink Bug) soybean leaf spray test; details: 120 h, application rate of 200 ppm, soybean leaves sprayed, N2 nymphs, 5 days after infestation, read-out: effect in at least one of the two categories (mortality or growth inhibition)
Protocol: Soybean leaves on agar in 24-well microtiter plates were sprayed with aqueous test solutions prepared from 10,000 ppm DMSO stock solutions. After drying the leaves were infested with N2 nymphs. The samples were assessed for mortality and growth inhibition in comparison to untreated samples 5 days after infestation.

[6] = test system: Myzus persicae (Green Peach Aphid); test: Myzus persicae (Green Peach Aphid): Feeding/Contact Activity; details: foliar, 144 h, application rate of 200 ppm, sunflower leaf discs sprayed, aphid population of mixed ages, 6 days after infestation
Protocol: Sunflower leaf discs were placed onto agar in a 24-well microtiter plate and sprayed with aqueous test solutions prepared from 10,000 ppm DMSO stock solutions. After drying, the leaf discs were infested with an aphid population of mixed ages. The samples were assessed for mortality 6 days after infestation.

[7] = test system: Plutella xylostella (Diamond Back Moth); test: Plutella xylostella (Diamond Back Moth) artificial diet test; details: 120 h, application rate of 200 ppm, L2 larvae, 5 days after infestation, read-out: effect in at least one of the two categories (mortality or growth inhibition)
Protocol: 24-well microtiter plates with artificial diet were treated with aqueous test solutions prepared from 10,000 ppm DMSO stock solutions by pipetting. After drying, the plates were infested with L2 larvae (10 to 15 per well). The samples were assessed for mortality and growth inhibition in comparison to untreated samples 5 days after infestation.

[8] = test system: Myzus persicae (Green Peach Aphid); test: Myzus persicae (Green Peach Aphid). Systemic Activity; details: 144 h, test rate of 24 ppm, roots of infested pea seedlings in test solution, 6 days
Protocol: Roots of pea seedlings infested with an aphid population of mixed ages were placed directly into aqueous test solutions prepared from 10,000 DMSO stock solutions. The samples were assessed for mortality 6 days after placing seedlings into test solutions.

CCS(=O)(=O)c1cc(C2(C#N)CC2)cnc1-c1nc2cc(C(F)(F)F)nnc2n1C [Example H-1, 1-[5-Ethylsulfonyl-6-[7-methyl-3-(trifluoromethyl)imidazo[4,5-c]pyridazin-6-yl]-3-pyridyl]cyclopropanecarbonitrile]
≥ 80%: percent effect (mortality or growth inhibition) at 200 ppm [1] | mortality at 200 ppm [2] | mortality at 200 ppm [3] | percent effect (mortality, anti-feeding or growth inhibition) at 12.5 ppm [4] | percent effect (mortality or growth inhibition) at 200 ppm [5] | mortality at 200 ppm [6] | percent effect (mortality or growth inhibition) at 200 ppm [7] | mortality at 24 ppm [8]

CCSc1cc(C2(C#N)CC2)cnc1-c1nc2cc(C(F)(F)F)nnc2n1C [Example H-2, 1-[5-ethylsulfanyl-6-[7-methyl-3-(trifluoromethyl)imidazo[4,5-c]pyridazin-6-yl]-3-pyridyl]cyclopropanecarbonitrile]
≥ 80%: percent effect (mortality or growth inhibition) at 200 ppm [1] | mortality at 200 ppm [3] | percent effect (mortality or growth inhibition) at 200 ppm [5] | percent effect (mortality or growth inhibition) at 200 ppm [7]

From patent US12421237B2, “Pesticidally active heterocyclic derivatives with sulfur containing substituents” (SYNGENTA PARTICIPATIONS AG, priority 2016, dated 2025)
